From PubChem BioAssay (NCI)
Values joined by “and” are separate entries in the source; they are usually repeats but may differ in a detail not shown here. Equal entries are not always repeated.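 Grown in 96-well plates, cells were treated for 48 hours with each compound at five concentrations. Insufficient inhibition: endpoint recorded as highest concentration tested. Abbreviation: GI50, concentration required for 50% inhibition of growth. TGI is the concentration that stops growth completely.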

Experiments:
Experiment in all cases: NCI tumour cell line growth inhibition, 48 h
HCT-116 colon = system: HCT-116 colon
HT29 colon = system: HT29 colon
IGROV1 ovarian = system: IGROV1 ovarian
KM12 colon = system: KM12 colon
MOLT-4 leukemia = system: MOLT-4 leukemia
NCI-H522 lung = system: NCI-H522 lung
SF-295 CNS = system: SF-295 CNS
SK-MEL-28 melanoma = system: SK-MEL-28 melanoma
TK-10 renal = system: TK-10 renal
U251 CNS = system: U251 CNS

Row | Compound | TGI (HCT-116 colon) | TGI (HT29 colon) | TGI (IGROV1 ovarian) | TGI (KM12 colon) | TGI (MOLT-4 leukemia) | TGI (NCI-H522 lung) | TGI (SF-295 CNS) | TGI (SK-MEL-28 melanoma) | TGI (TK-10 renal) | TGI (U251 CNS) | GI50 (HCT-116 colon) | GI50 (HT29 colon) | GI50 (IGROV1 ovarian) | GI50 (MOLT-4 leukemia) | GI50 (NCI-H522 lung) | GI50 (SK-MEL-28 melanoma) | GI50 (TK-10 renal)
1 | CCN(CC)C(=O)CCNC(C)Cc1c[nH]c2ccccc12 (configuration not stated) | > 100 µM | > 100 µM | > 100 µM | > 100 µM | > 100 µM | > 100 µM | > 100 µM | > 100 µM | > 100 µM | > 100 µM |  |  |  |  |  |  | 
2 | CC1=NN(c2cccc(S(=O)(=O)O)c2)C2(C1)SCC(=O)N2c1nc2ccccc2s1 (configuration not stated) | > 100 µM | > 100 µM | > 100 µM | > 100 µM | > 100 µM | > 100 µM | > 100 µM | > 100 µM | > 100 µM | > 100 µM |  |  |  |  |  |  | 
3 | O=C1CCCC1C(O)(C(F)(F)Cl)C(F)(F)Cl (configuration not stated) | > 10 µM | > 10 µM | > 10 µM | > 10 µM | > 10 µM | > 10 µM | > 10 µM | > 10 µM | > 10 µM | > 10 µM |  |  |  |  |  |  | 
4 | FC(F)(F)c1ccc(N=NN2CCCC2)cc1 | > 100 µM | > 100 µM | > 100 µM | 65.2 µM | > 100 µM | > 100 µM | > 100 µM | > 100 µM | > 100 µM | > 100 µM |  |  |  |  |  |  | 
5 | COC(=O)/C=C/[C@H]1[C@H](C)N1S(=O)(=O)c1ccc(C)cc1 (some centres not stated) | > 100 µM | > 100 µM | > 100 µM | > 100 µM | > 100 µM | > 100 µM | > 100 µM | > 100 µM | > 100 µM | > 100 µM |  |  |  |  |  |  | 
6 | CN1CCN2CCN(C)CCN(CC1)CC2 | > 100 µM | > 100 µM | > 100 µM | > 100 µM | > 100 µM | > 100 µM | > 100 µM | > 100 µM | > 100 µM | > 100 µM |  |  |  |  |  |  | 
7 | COc1ccc2oc(=O)c(-c3nc4ccccc4s3)cc2c1 | 37.6 µM | 33.1 µM | 38.9 µM | > 100 µM | > 100 µM | > 100 µM | > 57.3 µM | > 100 µM | > 100 µM | > 49.6 µM |  |  |  |  |  |  | 
8 | COC(=O)/C=C/c1cc(OC)c2c(c1)C(C(=O)OC)C(c1ccc(O)c(OC)c1)O2 (configuration not stated) | > 100 µM and > 46.7 µM and 19.7 µM | 37.8 µM and 26.8 µM and 14.4 µM | > 100 µM and 35.2 µM | > 88.2 µM and 20.9 µM and 15.7 µM | > 100 µM and 16.7 µM | > 27.5 µM and 25.5 µM and 8.16 µM | 11.8 µM and 12.6 µM and 10 µM | > 100 µM and > 70.4 µM and 86.7 µM | > 100 µM | > 45 µM and > 54.2 µM and 48.3 µM | 4.22 µM and 3.67 µM and 1.1 µM | 16 µM and 9.17 µM and 3.77 µM | 4.9 µM and 2.61 µM and 2.09 µM | 5.39 µM and 4.7 µM and 1.94 µM | 3.96 µM and 3.17 µM and 1.92 µM | > 56.3 µM and 18.9 µM and 9.69 µM | 47.5 µM and 15.6 µM and 15.3 µM
9 | COC(=O)CC(c1ccccc1)C(C#N)(OP1(=O)OC(c2ccccc2)C(C)N1C)c1ccccc1 (configuration not stated) | > 100 µM | > 100 µM | > 100 µM | > 100 µM | 64.6 µM | > 100 µM | > 100 µM | > 100 µM | > 100 µM | > 100 µM |  |  |  |  |  |  | 
10 | CCN(CC)CCCNc1c2cc(OC)ccc2nc2cccc([N+](=O)[O-])c12 | 0.175 µM | 0.453 µM | 0.387 µM | 0.347 µM | 0.554 µM | 0.0284 µM | 0.796 µM | 0.534 µM | 0.569 µM | 0.432 µM |  |  |  |  |  |  | 
11 | COC(=O)C(Cc1cc(OC)c(OC)c(OC)c1)(NC(=O)c1ccccc1)P(=O)(OC)OC (configuration not stated) | > 100 µM | > 100 µM | > 100 µM | > 100 µM | > 100 µM | > 100 µM | > 100 µM | > 100 µM | > 100 µM | > 100 µM |  |  |  |  |  |  | 
12 | CC(C)N=C(NC#N)NS(=O)(=O)c1cnccc1NC1CCCCCCC1 | > 100 µM | > 100 µM | > 100 µM | > 100 µM | > 100 µM | > 100 µM | > 100 µM | > 100 µM | > 100 µM | > 100 µM |  |  |  |  |  |  | 
13 | Cc1c(OCc2cccc3ccccc23)ccc2c(=O)cc(S)oc12 | 77.5 µM | > 100 µM | > 100 µM | > 100 µM | > 100 µM | 89.4 µM | 88.7 µM | > 100 µM | > 100 µM | > 100 µM |  |  |  |  |  |  | 
14 | CCOC1=NC(C(F)(F)F)(C(F)(F)F)N=C(/N=C(/N)N(C)C(C(C)C)P(=O)(OC(C)C)OC(C)C)O1 (configuration not stated) | > 100 µM | > 100 µM | > 100 µM | > 100 µM | 51.4 µM | 93.3 µM | > 100 µM | > 100 µM | > 100 µM | > 100 µM |  |  |  |  |  |  | 
15 | [B]C(=O)NC(CC(C)C)C(=O)NC1c2ccsc2C(=O)C1O (configuration not stated) (tested in a mixture with another compound) | > 100 µM | > 100 µM | > 100 µM | > 100 µM | > 100 µM | > 100 µM | > 100 µM | > 100 µM | > 100 µM | > 100 µM |  |  |  |  |  |  | 
16 | C[C@H](N)C(=O)Nc1ccc(-c2nc3ccccc3s2)cc1Cl | 24.5 µM | 32.8 µM | > 100 µM | 33.6 µM | 40 µM | 46 µM | 33.9 µM | 27.7 µM | 14.7 µM | 29.1 µM |  |  |  |  |  |  | 
17 | Cc1nc2ccccc2n1Cc1ccc(NC(=S)NC2CCCCC2)cc1 | > 100 µM | > 100 µM | > 100 µM | > 100 µM | > 100 µM | > 100 µM | > 88.3 µM | > 100 µM | > 100 µM | > 100 µM |  |  |  |  |  |  | 
18 | O=C(CCCN1CCC(Nc2ccc(F)cc2)(c2nnnn2C2CCCCC2)CC1)c1ccc(F)cc1 | 26.1 µM | > 100 µM | 12.3 µM | 13.3 µM | > 100 µM | 29.8 µM | 40.9 µM | 30.5 µM | 29.4 µM | 29.2 µM |  |  |  |  |  |  | 
